Results published in US20120270237A9, “METHODS FOR THE IDENTIFICATION OF KINASE INTERACTING MOLECULES AND FOR THE PURIFICATION OF KINASE PROTEINS” (Cellzone AG, priority 2009, published 2012).

What was measured:
Assay in all cases: Kinobeads competition binding, L-363 cell lysate
Parameters in all cases: endogenous in cells
Conditions in all cases: 10 μM free compound, L-363 lysate
[1] = biological target: GSK3B (Homo sapiens, UniProt P49841)
Protocol: (§1) To one aliquot of cell lysate 10 μM of the free compound (FIG. 3, CZC31326) was added and allowed to bind to proteins in the lysate. Then the affinity matrix with the immobilized compound was added to capture proteins that were not interacting with the previously added free compound. Beads were separated from the lysate and bead bound proteins were eluted in SDS sample buffer and subsequently separated by SDS-Polyacrylamide gel electrophoresis (FIG. 8). Suitable gel bands were cut out and subjected to in-gel proteolytic digestion with trypsin. The second lysate aliquot was processed identically, however no free compound was added (DMSO solvent control). Peptides originating from samples 1 and 2 were labeled with iTRAQ reagents (iTRAQ 114 and iTRAQ 117) and the combined samples were analyzed with a nano-flow liquid chromatography system coupled online to a tandem mass spectrometer (LC-MS/MS) experiment followed by iTRAQ reporter ion quantification in the MS/MS spectra as described in Example 2.
(§2) For this experiment the human plasma cell leukaemia line L-363 was used (German Collection of Microorganisms and Cell Cultures, DSMZ number ACC49, Braunschweig, Germany). Cells were treated for three hours with 20 μM of the proteasome inhibitor MG132 (Z-Leu-Leu-Leu-al, Sigma C2211) prior to cell harvesting.

[2] = biological target: T1, MAP2K5 (Homo sapiens, UniProt Q13163)
T1 sequence (Q13163 1-448): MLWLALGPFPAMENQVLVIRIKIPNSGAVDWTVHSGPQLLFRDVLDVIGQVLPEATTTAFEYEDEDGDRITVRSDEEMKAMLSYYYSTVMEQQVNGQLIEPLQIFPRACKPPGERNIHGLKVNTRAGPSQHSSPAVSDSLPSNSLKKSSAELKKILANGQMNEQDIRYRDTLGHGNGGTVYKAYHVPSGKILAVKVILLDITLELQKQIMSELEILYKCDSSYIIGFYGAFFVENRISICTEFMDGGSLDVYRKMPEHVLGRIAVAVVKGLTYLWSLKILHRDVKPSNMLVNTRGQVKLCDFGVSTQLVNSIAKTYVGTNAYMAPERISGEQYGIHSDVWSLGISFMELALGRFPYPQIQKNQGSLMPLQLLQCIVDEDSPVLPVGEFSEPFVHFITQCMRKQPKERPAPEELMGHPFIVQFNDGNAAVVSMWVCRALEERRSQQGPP
Protocol: as §1, §2

[3] = biological target: DNAPK (Homo sapiens, UniProt P78527)
Protocol: as §1, §2

[4] = biological target: MARK3 (Homo sapiens, UniProt P27448)
Protocol: as §1, §2

[5] = biological target: MST2 (Homo sapiens, UniProt Q13188)
Protocol: as §1, §2

[6] = biological target: IRAK1 (Homo sapiens, UniProt P51617)
Protocol: as §1, §2

[7] = biological target: T2, IRAK4 (Homo sapiens, UniProt Q9NWZ3)
T2 sequence (Q9NWZ3 1-460): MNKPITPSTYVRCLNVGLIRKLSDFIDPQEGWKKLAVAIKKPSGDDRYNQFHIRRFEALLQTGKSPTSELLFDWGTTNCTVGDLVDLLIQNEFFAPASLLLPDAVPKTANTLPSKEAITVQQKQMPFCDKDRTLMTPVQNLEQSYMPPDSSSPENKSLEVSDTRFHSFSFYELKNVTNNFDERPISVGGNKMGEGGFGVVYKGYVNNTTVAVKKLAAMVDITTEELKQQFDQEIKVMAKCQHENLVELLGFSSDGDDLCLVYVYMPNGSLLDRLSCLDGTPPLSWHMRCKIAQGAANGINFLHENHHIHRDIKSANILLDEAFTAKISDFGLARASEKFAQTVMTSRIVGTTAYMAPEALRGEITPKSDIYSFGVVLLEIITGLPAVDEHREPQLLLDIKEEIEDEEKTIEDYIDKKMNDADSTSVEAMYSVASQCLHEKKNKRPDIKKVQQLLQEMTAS
Protocol: as §1, §2

[8] = biological target: T3, PHKg2 (Homo sapiens, UniProt P15735)
T3 sequence (P15735 1-406): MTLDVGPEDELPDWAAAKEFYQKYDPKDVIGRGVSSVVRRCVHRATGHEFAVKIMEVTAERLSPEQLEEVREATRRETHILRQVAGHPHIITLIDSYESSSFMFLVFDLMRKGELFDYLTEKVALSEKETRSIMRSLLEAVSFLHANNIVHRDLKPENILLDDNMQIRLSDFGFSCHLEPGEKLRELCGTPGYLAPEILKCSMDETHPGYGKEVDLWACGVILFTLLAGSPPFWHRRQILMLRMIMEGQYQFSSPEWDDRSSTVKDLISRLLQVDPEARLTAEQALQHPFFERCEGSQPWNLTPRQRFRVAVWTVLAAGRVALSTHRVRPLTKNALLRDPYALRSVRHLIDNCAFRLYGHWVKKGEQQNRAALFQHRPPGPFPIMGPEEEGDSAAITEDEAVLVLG
Protocol: as §1, §2

[9] = biological target: MPSK1 (Homo sapiens, UniProt O75716)
Protocol: as §1, §2

[10] = biological target: CDK5 (Homo sapiens, UniProt Q00535)
Protocol: as §1, §2

[11] = biological target: MARK2 (Homo sapiens, UniProt Q7KZI7)
Protocol: as §1, §2

[12] = biological target: MSK2 (Homo sapiens, UniProt O75676)
Protocol: as §1, §2

Chain of GSK3B (P49841 whole entry): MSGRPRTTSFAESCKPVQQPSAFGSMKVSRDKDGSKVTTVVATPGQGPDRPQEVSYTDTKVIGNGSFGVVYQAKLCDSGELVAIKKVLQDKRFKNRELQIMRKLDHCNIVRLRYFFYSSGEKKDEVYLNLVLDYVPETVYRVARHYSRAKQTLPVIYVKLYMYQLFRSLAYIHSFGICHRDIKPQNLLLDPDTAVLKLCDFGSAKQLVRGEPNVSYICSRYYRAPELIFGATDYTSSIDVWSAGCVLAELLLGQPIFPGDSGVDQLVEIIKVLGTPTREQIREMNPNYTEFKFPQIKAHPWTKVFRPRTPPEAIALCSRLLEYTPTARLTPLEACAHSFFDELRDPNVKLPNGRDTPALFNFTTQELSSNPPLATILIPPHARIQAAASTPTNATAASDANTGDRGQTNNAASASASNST
Chain of MARK3 (P27448 whole entry): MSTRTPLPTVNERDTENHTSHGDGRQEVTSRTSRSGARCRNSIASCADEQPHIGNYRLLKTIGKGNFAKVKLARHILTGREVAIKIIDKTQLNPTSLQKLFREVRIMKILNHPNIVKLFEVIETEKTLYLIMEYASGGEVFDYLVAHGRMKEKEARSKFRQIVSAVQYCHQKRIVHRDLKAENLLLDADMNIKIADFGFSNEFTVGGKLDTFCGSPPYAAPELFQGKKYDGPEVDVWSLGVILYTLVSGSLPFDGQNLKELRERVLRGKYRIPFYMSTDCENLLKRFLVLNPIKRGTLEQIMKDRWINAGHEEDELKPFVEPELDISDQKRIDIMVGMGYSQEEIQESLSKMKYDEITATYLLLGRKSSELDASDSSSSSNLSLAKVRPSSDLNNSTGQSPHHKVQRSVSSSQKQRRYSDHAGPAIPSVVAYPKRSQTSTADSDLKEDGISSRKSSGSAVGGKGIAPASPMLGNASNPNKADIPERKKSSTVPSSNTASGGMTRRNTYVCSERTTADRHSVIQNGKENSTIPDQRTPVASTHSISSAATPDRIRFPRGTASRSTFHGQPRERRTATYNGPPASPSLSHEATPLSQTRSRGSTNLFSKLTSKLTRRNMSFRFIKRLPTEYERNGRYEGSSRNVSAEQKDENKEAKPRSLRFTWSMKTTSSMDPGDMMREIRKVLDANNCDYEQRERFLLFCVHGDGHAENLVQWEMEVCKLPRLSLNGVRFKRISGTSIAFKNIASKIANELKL
Chain of MPSK1 (O75716 whole entry): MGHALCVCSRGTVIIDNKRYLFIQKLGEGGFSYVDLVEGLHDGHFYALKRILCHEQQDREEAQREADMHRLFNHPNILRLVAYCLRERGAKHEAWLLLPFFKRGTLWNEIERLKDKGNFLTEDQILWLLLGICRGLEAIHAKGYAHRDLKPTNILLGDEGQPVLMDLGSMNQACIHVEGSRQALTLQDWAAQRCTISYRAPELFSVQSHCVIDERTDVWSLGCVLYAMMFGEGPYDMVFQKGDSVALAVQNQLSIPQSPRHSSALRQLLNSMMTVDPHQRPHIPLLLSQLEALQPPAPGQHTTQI
Chain of IRAK1 (P51617 whole entry): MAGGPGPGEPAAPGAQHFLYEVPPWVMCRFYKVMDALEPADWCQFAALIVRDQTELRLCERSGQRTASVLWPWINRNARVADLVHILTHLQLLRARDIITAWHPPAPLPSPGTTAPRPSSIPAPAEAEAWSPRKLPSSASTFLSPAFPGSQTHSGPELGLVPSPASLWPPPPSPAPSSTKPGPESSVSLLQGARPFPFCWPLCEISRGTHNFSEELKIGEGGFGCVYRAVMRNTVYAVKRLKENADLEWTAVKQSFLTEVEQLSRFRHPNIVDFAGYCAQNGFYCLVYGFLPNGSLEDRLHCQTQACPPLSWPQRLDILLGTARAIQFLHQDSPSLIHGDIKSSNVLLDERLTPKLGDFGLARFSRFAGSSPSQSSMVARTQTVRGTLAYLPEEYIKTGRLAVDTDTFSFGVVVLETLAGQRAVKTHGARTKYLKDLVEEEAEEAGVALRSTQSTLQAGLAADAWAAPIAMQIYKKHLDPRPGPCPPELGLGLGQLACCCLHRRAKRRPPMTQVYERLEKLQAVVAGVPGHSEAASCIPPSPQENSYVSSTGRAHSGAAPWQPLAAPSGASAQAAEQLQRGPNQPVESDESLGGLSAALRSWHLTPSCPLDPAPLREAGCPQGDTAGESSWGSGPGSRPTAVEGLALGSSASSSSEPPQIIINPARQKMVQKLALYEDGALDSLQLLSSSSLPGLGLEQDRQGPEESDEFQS
Chain of MARK2 (Q7KZI7 whole entry): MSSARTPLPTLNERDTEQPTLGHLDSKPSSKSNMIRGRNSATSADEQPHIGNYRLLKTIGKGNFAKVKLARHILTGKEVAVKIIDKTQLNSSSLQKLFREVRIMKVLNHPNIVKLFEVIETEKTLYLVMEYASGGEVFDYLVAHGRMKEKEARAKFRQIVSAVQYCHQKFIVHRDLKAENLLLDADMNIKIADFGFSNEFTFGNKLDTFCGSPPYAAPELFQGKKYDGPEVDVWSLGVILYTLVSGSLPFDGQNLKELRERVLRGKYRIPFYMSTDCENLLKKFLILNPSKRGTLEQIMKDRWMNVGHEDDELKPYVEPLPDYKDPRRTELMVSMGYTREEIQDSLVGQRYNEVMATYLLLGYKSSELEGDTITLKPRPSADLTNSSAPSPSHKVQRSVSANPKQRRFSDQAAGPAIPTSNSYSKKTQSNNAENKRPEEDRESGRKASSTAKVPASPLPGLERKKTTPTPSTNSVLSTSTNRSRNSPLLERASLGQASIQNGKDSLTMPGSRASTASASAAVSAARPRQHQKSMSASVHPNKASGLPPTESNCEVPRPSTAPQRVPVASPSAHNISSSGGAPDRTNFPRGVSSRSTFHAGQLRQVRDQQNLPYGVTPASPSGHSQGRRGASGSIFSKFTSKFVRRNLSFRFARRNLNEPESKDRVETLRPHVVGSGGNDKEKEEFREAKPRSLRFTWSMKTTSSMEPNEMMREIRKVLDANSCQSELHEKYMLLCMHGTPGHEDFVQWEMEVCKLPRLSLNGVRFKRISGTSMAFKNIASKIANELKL
Chain of MSK2 (O75676 whole entry): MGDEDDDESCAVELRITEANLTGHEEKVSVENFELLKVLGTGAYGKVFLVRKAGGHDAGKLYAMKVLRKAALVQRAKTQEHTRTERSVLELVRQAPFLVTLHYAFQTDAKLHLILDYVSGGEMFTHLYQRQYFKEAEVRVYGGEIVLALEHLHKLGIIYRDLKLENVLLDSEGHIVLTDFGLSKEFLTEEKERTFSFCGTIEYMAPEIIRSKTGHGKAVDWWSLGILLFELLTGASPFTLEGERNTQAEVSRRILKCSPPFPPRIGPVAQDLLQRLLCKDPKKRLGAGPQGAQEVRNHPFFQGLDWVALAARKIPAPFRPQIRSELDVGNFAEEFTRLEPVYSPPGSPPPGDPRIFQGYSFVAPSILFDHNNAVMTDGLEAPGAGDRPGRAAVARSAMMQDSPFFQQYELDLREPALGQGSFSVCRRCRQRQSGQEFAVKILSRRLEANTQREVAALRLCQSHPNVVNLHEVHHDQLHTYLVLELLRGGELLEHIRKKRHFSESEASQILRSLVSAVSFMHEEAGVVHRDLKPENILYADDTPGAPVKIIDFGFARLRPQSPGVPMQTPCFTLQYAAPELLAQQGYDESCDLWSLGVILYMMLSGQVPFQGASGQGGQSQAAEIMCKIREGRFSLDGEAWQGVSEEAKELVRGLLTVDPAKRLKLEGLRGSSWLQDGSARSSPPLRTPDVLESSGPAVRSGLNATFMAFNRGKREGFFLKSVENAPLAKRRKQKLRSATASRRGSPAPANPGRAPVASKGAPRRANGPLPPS
Chain of MST2 (Q13188 whole entry): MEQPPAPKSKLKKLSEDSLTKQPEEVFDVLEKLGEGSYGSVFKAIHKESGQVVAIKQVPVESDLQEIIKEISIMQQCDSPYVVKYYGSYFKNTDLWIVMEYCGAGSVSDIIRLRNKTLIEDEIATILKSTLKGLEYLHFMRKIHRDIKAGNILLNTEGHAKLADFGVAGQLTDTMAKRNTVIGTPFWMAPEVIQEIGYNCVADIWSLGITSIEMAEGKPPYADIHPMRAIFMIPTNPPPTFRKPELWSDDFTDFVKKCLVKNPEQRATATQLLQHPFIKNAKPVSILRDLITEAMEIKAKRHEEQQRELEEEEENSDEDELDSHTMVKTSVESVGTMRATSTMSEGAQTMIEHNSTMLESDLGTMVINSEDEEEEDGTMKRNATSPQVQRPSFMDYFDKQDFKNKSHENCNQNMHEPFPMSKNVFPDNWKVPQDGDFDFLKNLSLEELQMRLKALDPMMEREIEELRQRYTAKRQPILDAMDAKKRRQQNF
Chain of CDK5 (Q00535 whole entry): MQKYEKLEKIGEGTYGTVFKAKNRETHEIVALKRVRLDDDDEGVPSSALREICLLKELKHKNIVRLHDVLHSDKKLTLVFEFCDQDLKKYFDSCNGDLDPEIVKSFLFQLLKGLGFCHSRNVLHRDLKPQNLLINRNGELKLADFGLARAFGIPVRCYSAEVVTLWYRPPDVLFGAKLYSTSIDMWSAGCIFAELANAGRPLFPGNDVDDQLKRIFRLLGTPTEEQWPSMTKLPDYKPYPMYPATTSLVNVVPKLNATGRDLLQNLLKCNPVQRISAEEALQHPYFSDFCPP

inhibition at 10 µM [1]: 94.6% | inhibition at 10 µM [2]: 97.5% | inhibition at 10 µM [3]: 84% | inhibition at 10 µM [4]: 97% | inhibition at 10 µM [5]: 98.2% | inhibition at 10 µM [6]: 95.1% | Competition % [7]: 97.4% | inhibition at 10 µM [8]: 94.1% | inhibition at 10 µM [9]: 93.3% | inhibition at 10 µM [10]: 96.4% | inhibition at 10 µM [11]: 97% | inhibition at 10 µM [12]: 94.2%
SMILES: CS(=O)(=O)Nc1ccccc1Nc1nc(Nc2cccc(OCCN)c2)ncc1Cl [CZC31326, N-(2-(2-(3-(2-aminoethoxy)phenylamino)-5-chloropyrimidin-4-ylamino)phenyl)methanesulfonamide]
